These results are taken from patent US9834808B2, “Methods for rapid antibiotic susceptibility testing” (SeLux Diagnostics, Inc., priority 2016, dated 2017).

For test [1], the system named is clinical S. aureus strain. The experiment in a line: CLSI overnight method MIC. The conditions noted are these: Staphylococcus aureus.
The test system of test [2] is S. aureus (QC strain 29213). The experiment in a line: standard CLSI reference method MIC (fast-AST MICs stated to be similar). Type of test: cell-based, Staphylococcus aureus. The procedure:
Microorganism detection is then performed visually.
S. aureus (QC strain 29213) was cultured under standard sterile conditions in Mueller-Hinton (MH) broth overnight at 37° C. with shaking.
The microplates, each well containing 100 μL, were inoculated with the prepared antimicrobial dilutions and incubated at 37° C. for 3 hours, 45 minutes for determination using the present invention (the “fast-AST” technique). The “fast-AST” microplates were removed from the shaking incubator after 3 hours, 45 minutes and centrifuged for 2.5 minutes at 2500×g in order to pellet. The MH broth was then aspirated and 100 μL of 25 mM PBS was added to each well of both microplates. Then, 10 µL of the chemical moiety (here, Europium-Cryptate formulation) was added to each well (to 20 ng/well) and 10 μL of 0.005% Glutaraldehyde (as the signaling agent) was added to each well. The two microplates were then shaken at 300 rpm for 30 minutes. After, both plates were centrifuged for 2.5 minutes at 2500×g to pellet. The solution was aspirated and a wash of 200 μL PBS-tween was added to each well, followed by a centrifugation to pellet. After aspiration of solution, a second identical wash of 200 μL PBS-tween occurred, followed by a final centrifugation to pellet. 200 μL PBS-tween was added to each well. The plate was then read using time resolved fluorescence on a BioTek H1 plate reader.

Test [3] deals with ampicillin-resistant E. coli (ATCC 39936). The experiment in a line: fluorescent nanoparticle signaling agent assay (free signaling agents in filtrate). Type of test: cell-based, Escherichia coli. Conditions: 100 μg/ml ampicillin, 1.5 hours, 0.2 μm filtrate; FIG. 41. On the procedure:
(§1) Both Escherichia coli (ATCC 11303) and ampicillin-resistant E. coli (ATCC 39936) were cultured under standard sterile conditions in LB broth at 37° C. Concentrations were determined by measuring absorbance at 600 nm (McFarland), and a concentration of 5×10^5 CFU/ml was set by dilution. Ampicillin was then weighed into sterile water and added in appropriate concentrations to sterile 3 mL microfuge tubes. Bacteria and nanoparticles at a concentration of 8×10^8 nanoparticles/ml were both added to these ampicillin-coated sterile microfuge tubes. The tubes were then capped and placed at 37° C. for 1.5 hours with continuous shaking, after which they were opened and each was passed through a 0.2 μm filter. Next, 100 μL of each filtrate was added to a well of a 96-well plate and 150 μL of a development solution (5% tetramethylammonium hydroxide in ethanol) was added to each well. After 5 minutes the plate was read at 490 nm excitation/530 nm emission in a SpectraMax M2 microplate reader (Molecular Devices).
(§2) An assay for free signaling agents, which are not associated with intact bacteria, was performed after intact bacteria were removed by filtration through a 0.2 μm filter.

Test [4] relates to Escherichia coli (ATCC 11303). Described as above. Type of test: cell-based. On the procedure:
as §1, §2

Test [5] has as its system clinical resistant E. coli ("Clinical"). The experiment in a line: fast-AST with Europium-Cryptate/glutaraldehyde, clinical strain. Type of test: cell-based, Escherichia coli. The conditions noted are these: 3 hours 45 minutes incubation, FIG. 17, FIG. 21. On the procedure:
(§3) Both Escherichia coli (QC strain, ATCC 25922) and clinical resistant E. coli (“Clinical”) were cultured under standard sterile conditions in Mueller-Hinton (MH) broth overnight at 37° C. with shaking. The E. coli concentration from the overnight culture was then set to 5×10^5 CFU/ml using the McFarland standard technique for optical density readings at 600 nm. Concurrently, two sterile 96-well microplates were prepared with serial dilutions of a specified antimicrobial (see below) and a no-antimicrobial (saline) control, all in MH broth. The microplates, each well containing 200 μL, were inoculated with the prepared antimicrobial dilutions and incubated at 37° C. for 3 hours, 45 minutes for determination using the present invention (the “fast-AST” technique). The “fast-AST” microplates were removed from the shaking incubator after 3 hours, 45 minutes and centrifuged for 2.5 minutes at 2500 g in order to pellet. The MH broth was then aspirated and 100 μL of water was added to each well of both microplates. Then, 10 μL of the chemical moiety (here, Europium-Cryptate formulation) was added to each well (to 20 ng/well) and 10 μL of 5% Glutaraldehyde (as the signaling agent) was added to each well. The two microplates were then shaken at 300 rpm for 30 minutes. […] The plate was then read using time resolved fluorescence on a BioTek H1 plate reader.

For test [6], the system named is Escherichia coli (QC strain, ATCC 25922) and clinical resistant E. coli ("Clinical"). The experiment in a line: fast-AST with Europium-Cryptate/glutaraldehyde, QC strain compared with clinical strain. Type of test: cell-based. The conditions noted are these: 3 hours 45 minutes incubation, FIG. 16 to FIG. 23. On the procedure: as §3
Test [7] deals with Pseudomonas aeruginosa (ATCC strain 27853). The experiment in a line: standard overnight growth, OD600 control MIC determination. Type of test: cell-based. The conditions noted are these: ATCC27853, overnight (>12 hours) incubation, FIG. 6. The procedure: (§4) Similarly, a culture of Pseudomonas aeruginosa (ATCC strain 27853) was grown using MH broth overnight at 37° C. with vigorous shaking. […] The data shown in FIG. 6 depicts from the 5 minute point after the start of incubation with detection solution. […] The MIC determined by both techniques is the same: 4 μg/ml.

Test [8] has the same test system. The experiment in a line: fast-AST MIC determination (HRP-conjugated anti-P. aeruginosa antibody signaling agent). Type of test: cell-based. Conditions: ATCC27853, 3.5 hours incubation, susceptible strain, FIG. 6, FIG. 7. The procedure: as §4
(§5) The MIC for the resistant P. aeruginosa strain, ATCC BAA-2108, was determined similarly. The same 96-well microplate was used for both strains, with 48 wells dedicated to each strain.

For test [9], the system named is resistant P. aeruginosa strain, ATCC BAA-2108. The experiment in a line: fast-AST MIC determination, resistant strain. Type of test: cell-based. Conditions: Pseudomonas aeruginosa, ATCCBAA2108, FIG. 7. On the procedure:
as §4, §5

Where [10] appears, read: standard CLSI reference method, fast-AST MICs similar, FIG. 24 to FIG. 26.

Converted amounts (≈) assume the structure as drawn.

In the case of `CN[C@H](CC(C)C)C(=O)N[C@H]1C(=O)N[C@@H](CC(N)=O)C(=O)N[C@H]2C(=O)N[C@H]3C(=O)N[C@H](C(=O)N[C@H](C(=O)O)c4cc(O)cc(O)c4-c4cc3ccc4O)[C@H](O)c3ccc(c(Cl)c3)Oc3cc2cc(c3O[C@@H]2O[C@H](CO)[C@@H](O)[C@H](O)[C@H]2O[C@H]2C[C@](C)(N)[C@H](O)[C@H](C)O2)Oc2ccc(cc2Cl)[C@H]1O` [Vancomycin], the MIC in test [1] was 8 µg/mL (≈ 5.52 µM); in test [2] (Staphylococcus aureus) it was 0.5 to 2 µg/mL (≈ 0.345 to 1.38 µM).
`CC1(C)S[C@@H]2[C@H](NC(=O)[C@H](N)c3ccccc3)C(=O)N2[C@H]1C(=O)O` [ampicillin]: the “fluorescent signal of free signaling agent” value was “low fluorescent signals” in test [3] and “significant increase in fluorescence” in test [4] (100 μg/ml ampicillin, 1.5 hours, 0.2 μm filtrate, FIG. 41). Besides, the minimum inhibitory concentration (MIC) in test [4] (Escherichia coli, ATCC11303, varying ampicillin concentrations, fluorescent nanoparticle assay, FIG. 42) was about 15 µg/mL (≈ 42.9 µM). Besides, the “susceptibility call of the clinical strain” value in test [5] is “resistant”. The “MICs of QC strain compared with clinical resistant strain” value in [6] is recorded as “dissimilar MICs”.
`CC(C)(O/N=C(\C(=O)N[C@@H]1C(=O)N2C(C(=O)[O-])=C(C[n+]3ccccc3)CS[C@H]12)c1csc(N)n1)C(=O)O` [ceftazidime]: the MIC in test [7] and in test [8] was 4 µg/mL (≈ 7.32 µM) each time.
As to `C[C@@H](O)[C@H]1C(=O)N2C(C(=O)O)=C(SCCN=CN)C[C@H]12` [imipenem], the MIC in test [9] was determined as 32 µg/mL (≈ 107 µM); in [8] it was 2 µg/mL (≈ 6.68 µM).
In test [2] (setting [10]), Penicillin returned a minimum inhibitory concentration (MIC) of 0.25 to 2 µg/mL.
In the case of Teicoplanin, the MIC in test [2] (setting [10]) was 0.25 to 1 µg/mL.

What is called MIC is the lowest concentration that inhibits growth of the organism. Lower therefore signals inhibition by little substance.
